In patent US9815851B2, “Pyrrolo carboxamides as modulators of orphan nuclear receptor RAR-related orphan receptor-gamma (RORγ, NR1F3) activity and for the treatment of chronic inflammatory and autoimmune diseases” (PHENEX PHARMACEUTICALS AG, priority 2011, dated 2017):
Where two headings read alike, the source gives them in different places.

Columns and labels:
[1] = molecular target: T1, RORγ ligand binding domain (LBD) (Homo sapiens, UniProt P51449); assay: TR-FRET Activity Assay (ligand sensing, RORγ-LBD / coactivator peptide interaction, LANCE); format: biochemical
T1 construct: made in house; host or cells: E. coli BL-21 (BL3), vector pDEST15
T1 sequence (P51449 269-508 limits assumed): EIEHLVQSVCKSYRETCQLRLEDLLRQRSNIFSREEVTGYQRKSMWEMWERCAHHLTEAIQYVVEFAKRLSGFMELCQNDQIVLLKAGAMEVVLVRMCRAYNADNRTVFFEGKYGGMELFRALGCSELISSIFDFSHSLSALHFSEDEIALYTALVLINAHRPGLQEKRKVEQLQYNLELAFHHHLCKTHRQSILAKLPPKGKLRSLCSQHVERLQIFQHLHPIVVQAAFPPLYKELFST

[2] = molecular target: T2, RORγ (UniProt P51449); assay: RORγ Gal4 Reporter Gene Assay in 293T cells (firefly and renilla luciferase); format: cell-based, human
T2 sequence (P51449 1-518): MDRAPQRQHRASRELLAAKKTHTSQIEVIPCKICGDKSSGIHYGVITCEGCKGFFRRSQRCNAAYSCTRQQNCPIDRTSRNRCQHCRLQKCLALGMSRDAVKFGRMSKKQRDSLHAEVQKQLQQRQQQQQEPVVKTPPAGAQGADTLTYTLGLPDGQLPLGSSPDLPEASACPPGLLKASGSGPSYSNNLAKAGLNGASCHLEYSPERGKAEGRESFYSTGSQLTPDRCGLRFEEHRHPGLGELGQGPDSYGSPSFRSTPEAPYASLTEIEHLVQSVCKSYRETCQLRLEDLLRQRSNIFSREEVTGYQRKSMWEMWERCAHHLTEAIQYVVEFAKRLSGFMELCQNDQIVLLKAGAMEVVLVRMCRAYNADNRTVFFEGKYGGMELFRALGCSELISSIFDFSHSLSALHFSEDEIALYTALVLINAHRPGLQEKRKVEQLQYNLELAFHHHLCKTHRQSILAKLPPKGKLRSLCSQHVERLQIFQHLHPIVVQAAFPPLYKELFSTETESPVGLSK

[3] = first value of the cell FRET/FF/REN, TR-FRET activity assay, read-out: pIC50 (FRET) (converted)
[4] = second value of the cell, Gal4 reporter gene assay in 293T cells, firefly luciferase
[5] = third value of the cell, Gal4 reporter gene assay in 293T cells, renilla normalised luciferase

Compound: COCC(C)(C)NS(=O)(=O)c1ccc(-c2cc(C(=O)NC3CCOCC3)c(C)n2CC2CCCCC2)cc1C(F)(F)F [17/109]
- IC50 [1]: 631 nM
- pIC50 (FF) [2]: 6.2/7.2/7.3
- pIC50 (REN) [2]: 6.2/7.2/7.3

Compound: Cc1c(C(=O)N[C@H]2C[C@H](C(=O)O)C2)cc(-c2ccc(S(=O)(=O)NC(C)(C)C)c(Cl)c2Cl)n1CC1CCCCC1 [17/277]
- IC50 [1, 3]: 398 nM
- pIC50 (FF) [2, 4]: 7.2
- pIC50 (REN) [2, 5]: 7.2

Compound: Cc1c(C(=O)NCC(C)(C)O)cc(-c2cc(C(=O)NC(C)C)cc(C(C)(C)C)c2)n1CC1CCCCC1 [15/9]
- IC50 [1, 3]: 1000 nM
- pIC50 (FF) [2, 4]: 6.9
- pIC50 (REN) [2, 5]: 7.0

Compound: CCN(C(C)(C)C)S(=O)(=O)c1ccc(-c2cc(C(=O)NC3CCOCC3)c(C)n2CC2CCCCC2)cc1C(F)F [17/125]
- IC50 [1]: 79.4 nM
- pIC50 (FF) [2]: 7.1/6.4/6/
- pIC50 (REN) [2]: 7.1/6.4/6/

Compound: Cc1c(C(=O)NC2CCOCC2)cc(-c2ccc(CC(=O)NC(C)(C)C)c(C(F)(F)F)c2)n1CC1CCCCC1 [17/131]
- IC50 [1, 3]: 501 nM
- pIC50 (FF) [2, 4]: 6.8
- pIC50 (REN) [2, 5]: 6.9

Compound: CC(C)(C)NS(=O)(=O)c1ccc(-c2cc(C(=O)N[C@H]3C[C@H](C(=O)O)C3)c(F)n2CC2CCCCC2)cc1C(F)(F)F [20/7]
- IC50 [1, 3]: 398 nM
- pIC50 (FF) [2, 4]: 6.2
- pIC50 (REN) [2, 5]: 6.2

Compound: Cc1c(C(=O)NC2COC2)cc(-c2cc(C(C)(C)C)cc(C(C)(C)C)c2)n1S(=O)(=O)N1CC(C)CC(C)C1 (stereo not drawn) [7/3]
- IC50 [1, 3]: 251 nM
- pIC50 (FF) [2, 4]: 6.6
- pIC50 (REN) [2, 5]: 6.7

Compound: CCCNS(=O)(=O)c1ccc(-c2cc(C(=O)NC3CCOCC3)c(C)n2CC2CCCCC2)cc1C(F)(F)F [17/111]
- IC50 [1, 3]: 316 nM
- pIC50 (FF) [2, 4]: 7.2
- pIC50 (REN) [2, 5]: 7.3

Compound: Cc1c(C(=O)NCC(C)(C)C(=O)O)cc(-c2ccc(S(=O)(=O)NC(C)(C)C)c(OC(F)(F)F)c2)n1CC1CCCCC1 [17/173]
- IC50 [1, 3]: 316 nM
- pIC50 (FF) [2, 4]: 7.3
- pIC50 (REN) [2, 5]: 7.3

Compound: Cc1c(C(=O)N[C@H]2C[C@H](C(=O)O)C2)cc(-c2cc(C(=O)NC(C)(C)C)nc(C3(C)CC3)n2)n1CC1CCCCC1 [17/372]
- IC50 [1, 3]: 3160 nM
- pIC50 (FF) [2, 4]: 6.3
- pIC50 (REN) [2, 5]: 6.2

Compound: COCC(=O)NC(C)(C)CNC(=O)c1cc(-c2cc(C(C)(C)C)cc(C3(C)CC3)c2)n(CC2CCCCC2)c1C [17/122]
- IC50 [1]: 398 nM
- pIC50 (FF) [2]: 6.4/7.6/7.5
- pIC50 (REN) [2]: 6.4/7.6/7.5

Compound: COC(=O)[C@H]1C[C@H](NC(=O)c2cc(-c3cc(C(C)(C)C)cc(C4(C)CC4)c3)n(CC3CCCCC3)c2C)C1 [17/154]
- IC50 [1, 3]: 316 nM
- pIC50 (FF) [2, 4]: 7.2
- pIC50 (REN) [2, 5]: 7.3

Compound: Cc1c(C(=O)NCCN2CCOCC2)cc(-c2cc(C(C)(C)C)cc(C3(C)CC3)c2)n1CC1CCCCC1 [1/88]
- IC50 [1]: 398 nM
- pIC50 (FF) [2]: 6.4/6.5/6.5
- pIC50 (REN) [2]: 6.4/6.5/6.5

Compound: Cc1c(C(=O)N[C@H]2C[C@H](C(=O)O)C2)c(Cl)c(-c2cc(C(C)(C)O)cc(C3(C)CC3)c2)n1CC1CCCCC1 [29/1]
- IC50 [1, 3]: 3160 nM
- pIC50 (FF) [2, 4]: 6.8
- pIC50 (REN) [2, 5]: 6.8

Compound: Cc1c(C(=O)NCCC(C)(C)C(=O)O)cc(-c2ccc(-c3ccnn3C(C)C)c(C(F)(F)F)c2)n1CC1CCCCC1 [17/250]
- IC50 [1, 3]: 1580 nM
- pIC50 (FF) [2, 4]: 6.6
- pIC50 (REN) [2, 5]: 6.5

Compound: Cc1c(C(=O)NCC2(O)CCSCC2)cc(-c2cc(C(C)(C)C)c3c(c2)C2(CCO3)CC2)n1CC1CCCCC1 [17/37]
- IC50 [1, 3]: 1260 nM
- pIC50 (FF) [2, 4]: 7.1
- pIC50 (REN) [2, 5]: 7.1

Compound: Cc1c(C(=O)NCC(C)(C)O)cc(-c2ccc(S(=O)(=O)N(C)C(C)(C)C)c(C(C)(C)C)c2)n1CC1CCCCC1 [9/9]
- IC50 [1, 3]: 501 nM
- pIC50 (FF) [2, 4]: 7.2
- pIC50 (REN) [2, 5]: 7.3

Compound: Cc1c(C(=O)NC2COC2)cc(-c2cc(C(C)(C)C)nc(C(C)(C)C)c2)n1CC1CCCCC1 [1/122]
- IC50 [1, 3]: 158 nM
- pIC50 (FF) [2, 4]: 7.0
- pIC50 (REN) [2, 5]: 7.0

Compound: Cc1c(C(=O)NCC(C)(C)NS(C)(=O)=O)cc(-c2cc(C(C)(C)C)cc(C(C)(C)C)c2)n1CC1CCCCC1 [1/4]
- IC50 [1]: 316 nM
- pIC50 (FF) [2]: 6.5/7.5/7.6
- pIC50 (REN) [2]: 6.5/7.5/7.6

Compound: Cc1c(S(=O)(=O)NC(C)(C)C)ccc(-c2cc(C(=O)NCCC(C)(C)C(=O)O)c(C)n2CC2CCCCC2)c1OC(F)F [17/284]
- IC50 [1, 3]: 1260 nM
- pIC50 (FF) [2, 4]: 7.3
- pIC50 (REN) [2, 5]: 7.3
